pEC50: −log10 of the molar value.
Biological target: T1, human GLP-1R receptor (Homo sapiens, UniProt P43220)
T1 construct: expressed in transfected cells
Test: GLP-1R low expression cell assay (cAMP TR-FRET, CHO-K1_hGLP-1Rlow_clone10 cells)
Assay type: cell-based
Conditions: for pEC50: cAMP TR-FRET, 30 min at 25° C.; for Emax: maximum activation relative to control GLP-1 peptide agonist
Description: Stable cell lines expressing high and low GLP-1R surface expression were generated in CHO-K1 cells transfected (Fugene 6) with a puromycin selectable DNA plasmid encoding human GLP-1R receptor (accession number: NM_002062.5) under control of an EF1A promoter. Transfected cells were seeded into 24-well plates (9,000 cells/well) containing complete medium and incubated in a humidified incubator at 37° C. with 5% carbon dioxide. After overnight incubation, medium was replaced with complete medium supplemented with puromycin (6 μg/mL) and refreshed every 2-3 days to select for stably transfected cells. Individual pools of selected cells were expanded prior to analysis for responsiveness to GLP-1 control peptide using a TR-FRET assay to detect cAMP (LANCE Ultra CAMP Assay, Perkin Elmer). Briefly, cells were collected in Versene solution, plated in 384-well plates (1,000 cells/well) and combined with serially diluted GLP-IR control peptide (10 nL) using an acoustic dispenser (ECHO). Plates were incubated for 30 minutes at 25° C. prior to the addition of EU-CAMP tracer (5 μL) and Ulight-anti-CAMP (5 μL) reagents to each well, followed by 15 minutes incubation at 25° C. TR-FRET signal was detected using an En Vision Multimode Plate Reader (excitation=320 nm; emission=615 and 655 nm). Dose-response curves were used to generate EC50 values as a measure of responsiveness to the GLP-IR control peptide. Selected cell lines were monitored for responsiveness over multiple passages to ensure stability. […] Briefly, GLP-IR expression was analyzed by flow cytometry using a fluorescein-labeled Exendin-4 peptide fluorescent probe (FLEX). Cells were harvested in Versene solution and washed 3-times with PBS+0.5% BSA before incubation with FLEX reagent (10 μM) for 2 hours at room temperature. After incubation, cells were washed 3-times in PBS+0.5% BSA before final resuspension in PBS prior to analysis by flow cytometry to measure FLEX mean fluorescence intensity (MFI) as a measure of GLP-IR expression on the cell surface.
For compound testing in the CHO-K1_hGLP-IRlow_clone10 cell line, cells were seeded in 384-well plates (1,000 cells/well). Test compounds were serially diluted in DMSO (10-point, 3-fold dilution), added to wells using an ECHO dispenser (10 nL/well) and plates were centrifuged for 1 min and agitated for 2 min at room temperature prior to 30-minute incubation at 25° C. After incubation, Eu-CAMP (5 μL) and Ulight-anti-cAMP (5 μL) reagents were added to each well, followed by centrifugation for 1 minute, agitation for 2 minutes at room temperature, and final incubation of the plates at 25° C. for 15 minutes. Plates were read using an EnVision microplate reader (excitation=320 nm; emission=615 and 655 nm). Dose-response curves were generated from duplicate wells based on percent activation calculated relative to a control GLP-1 peptide agonist that was run in parallel. EC50 values were determined by fitting percent activation as a function of compound concentration using the Hill equation (XLfit).
The compounds tested were compound samples prepared according to the General Procedures described in the Examples section.

T1 sequence (P43220 24-463): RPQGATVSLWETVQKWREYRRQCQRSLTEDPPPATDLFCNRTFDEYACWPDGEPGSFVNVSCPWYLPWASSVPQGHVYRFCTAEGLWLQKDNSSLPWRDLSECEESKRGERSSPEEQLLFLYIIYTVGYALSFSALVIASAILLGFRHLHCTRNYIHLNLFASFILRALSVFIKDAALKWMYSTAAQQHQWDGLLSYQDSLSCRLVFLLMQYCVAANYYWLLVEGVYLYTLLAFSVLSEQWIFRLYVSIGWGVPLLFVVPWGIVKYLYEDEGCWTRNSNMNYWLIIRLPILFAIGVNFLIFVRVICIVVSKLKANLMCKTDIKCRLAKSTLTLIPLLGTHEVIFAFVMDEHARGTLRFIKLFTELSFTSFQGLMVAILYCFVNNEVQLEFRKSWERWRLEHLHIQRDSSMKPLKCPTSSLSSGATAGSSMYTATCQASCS

| SMILES | pEC50 | Emax [%] |
| --- | --- | --- |
| COc1cc(C#N)ncc1COc1cccc(C2CCN(Cc3nc4c(OC(F)F)cc(C(=O)O)cc4n3C)CC2)n1 [Compound 354] | 7.00 to 8.00 | > 85 |
| CCOc1cc(-c2nc(=O)o[nH]2)cc2c1nc(CN1CCC(c3cccc(OCc4ccc(C#N)cc4F)n3)CC1)n2C [Compound 260, 4-(((6-(1-((4-ethoxy-1-methyl-6-(5-oxo-2,5-dihydro-1,2,4-oxadiazol-3-yl)-1H-benzo[d]imidazol-2-yl)methyl)piperidin-4-yl)pyridin-2-yl)oxy)methyl)-3-fluorobenzonitrile] | 7.00 to 8.00 | > 85 |
| O=C(O)c1ccc2nc(CN3CCC(c4cccc(OCc5ccc(Cl)cc5F)n4)CC3)[nH]c2c1OC(F)F [Compound 210, 2-((4-(6-((4-Chloro-2-fluorobenzyl)oxy)pyridin-2-yl)piperidin-1-yl)methyl)-7-(difluoromethoxy)-1H-benzo[d]imidazole-6-carboxylic acid] | < 6.00 | 25 to 50 |
| [2H]C([2H])([2H])Oc1cc(C(=O)O)cc2c1nc(CN1CCC(c3cccc(OCc4ccc(C#N)cc4F)n3)CC1)n2C [Compound 349, 2-((4-(6-((4-Cyano-2-fluorobenzyl)oxy)pyridin-2-yl)piperidin-1-yl)methyl)-4-(methoxy-d3)-1-methyl-1H-benzo[d]imidazole-6-carboxylic acid] | > 8.00 | > 85 |
| Cn1c(CN2CCC(c3cccc(OCc4ccc(C(F)F)cc4F)n3)CC2)nc2c(OC(F)F)cc(C(=O)O)cc21 [Compound 201, 4-(Difluoromethoxy)-2-((4-(6-((4-(difluoromethyl)-2-fluorobenzyl)oxy)pyridin-2-yl)piperidin-1-yl)methyl)-1-methyl-1H-benzo[d]imidazole-6-carboxylic acid] | 7.00 to 8.00 | > 85 |
| Cn1c(CN2CCC(c3cccc(OCc4ccc(Cl)cc4F)n3)CC2)nc2c(OCC3(F)CC3)cc(C(=O)O)cc21 [Compound 188, 2-((4-(6-((4-Chloro-2-fluorobenzyl)oxy)pyridin-2-yl)piperidin-1-yl)methyl)-4-((1-fluorocyclopropyl)methoxy)-1-methyl-1H-benzo[d]imidazole-6-carboxylic acid] | 7.00 to 8.00 | > 85 |
| Cn1c(CN2CCC(c3cccc(OCc4ccc(Cl)cc4F)n3)CC2)nc2c(O[C@H]3C[C@@H](F)C3)cc(C(=O)O)cc21 [Compound 379, 2-((4-(6-((4-Chloro-2-fluorobenzyl)oxy)pyridin-2-yl)piperidin-1-yl)methyl)-4-((1s,3s)-3-fluorocyclobutoxy)-1-methyl-1H-benzo[d]imidazole-6-carboxylic acid] | 7.00 to 8.00 | > 85 |
| CCOc1cc(C(=O)O)cc2c1nc(CN1CCC(c3cccc(OCc4ccc(Cl)cc4F)n3)CC1)n2C [Compound 358, 2-((4-(6-((4-Chloro-2-fluorobenzyl)oxy)pyridin-2-yl)piperidin-1-yl)methyl)-4-ethoxy-1-methyl-1H-benzo[d]imidazole-6-carboxylic acid] |  | > 85 |
| COc1cc(C(=O)O)cc2c1nc(CN1CC[C@@H](c3cccc(OCc4ccc(C#N)cc4F)n3)[C@@H]3C[C@@H]31)n2C[C@@H]1CCO1 [Compound 387, 2-(((1S,5R,6S)-5-(6-((4-cyano-2-fluorobenzyl)oxy)pyridin-2-yl)-2-azabicyclo[4.1.0]heptan-2-yl)methyl)-4-methoxy-1-(((S)-oxetan-2-yl)methyl)-1H-benzo[d]imidazole-6-carboxylic acid] | > 8.00 |  |
| Cn1c(CN2CCC(Oc3cccc(Cc4ccc(C#N)cc4F)n3)CC2)nc2c(OC(F)F)cc(C(=O)O)cc21 [Compound 157, 2-((4-((6-(4-Cyano-2-fluorobenzyl)pyridin-2-yl)oxy)piperidin-1-yl)methyl)-4-(difluoromethoxy)-1-methyl-1H-benzo[d]imidazole-6-carboxylic acid] | 6.00 to 7.00 | > 85 |
| Cn1c(CN2CCC(c3cccc(OCc4ccc(C#N)cc4F)n3)CC2)nc2c(OC(C)(F)F)cc(C(=O)O)cc21 [Compound 180, 2-((4-(6-((4-Cyano-2-fluorobenzyl)oxy)pyridin-2-yl)piperidin-1-yl)methyl)-4-(1,1-difluoroethoxy)-1-methyl-1H-benzo[d]imidazole-6-carboxylic acid] | 7.00 to 8.00 | > 85 |
| COc1cc(C(=O)O)cc2c1nc(CN1CCC(c3cccc4c3O[C@H](c3ccc(C#N)cc3F)CO4)CC1)n2Cc1cncs1 [Compound 91, (R)-2-((4-(3-(4-cyano-2-fluorophenyl)-2,3-dihydrobenzo[b][1,4]dioxin-5-yl)piperidin-1-yl)methyl)-4-methoxy-1-(thiazol-5-ylmethyl)-1H-benzo[d]imidazole-6-carboxylic acid] | 6.00 to 7.00 | > 85 |
| COCCOc1cc(C(=O)O)cc2c1nc(CN1CCC(c3cccc4c3O[C@@](C)(c3ccc(Cl)cn3)O4)CC1)n2C [Compound 30, (S)-2-((4-(2-(5-Chloropyridin-2-yl)-2-methylbenzo[d][1,3]dioxol-4-yl)piperidin-1-yl)methyl)-4-(2-methoxyethoxy)-1-methyl-1H-benzo[d]imidazole-6-carboxylic acid] | > 8.00 |  |
| CCOc1cc(-c2cc(=O)[nH]o2)cc2c1nc(CN1CCC(c3cccc(OCc4ccc(C#N)cc4F)n3)CC1)n2C [Compound 384, 4-(((6-(1-((4-Ethoxy-1-methyl-6-(3-oxo-2,3-dihydroisoxazol-5-yl)-1H-benzo[d]imidazol-2-yl)methyl)piperidin-4-yl)pyridin-2-yl)oxy)methyl)-3-fluorobenzonitrile] | 7.00 to 8.00 | > 85 |
| Cn1c(CN2CCC(c3cccc(OCc4ccc(Cl)cc4F)c3)CC2)nc2c(OC(F)F)cc(C(=O)O)cc21 [Compound 148, 2-((4-(3-((4-Chloro-2-fluorobenzyl)oxy)phenyl)piperidin-1-yl)methyl)-4-(difluoromethoxy)-1-methyl-1H-benzo[d]imidazole-6-carboxylic acid] | 6.00 to 7.00 | > 85 |
| COc1c(F)c(C(=O)O)cc2c1nc(CN1CCC(c3cccc(OCc4ccc(Cl)cc4F)n3)CC1)n2C [Compound 337, 2-((4-(6-((4-Chloro-2-fluorobenzyl)oxy)pyridin-2-yl)piperidin-1-yl)methyl)-5-fluoro-4-methoxy-1-methyl-1H-benzo[d]imidazole-6-carboxylic acid] | 7.00 to 8.00 | > 85 |
| [2H]C([2H])([2H])Oc1cc(C(=O)O)cc2c1nc(CN1CCC(c3cccc4c3O[C@@](C)(c3ccc(Cl)cn3)O4)CC1)n2C[C@@H]1CCO1 [Compound 98, 2-((4-((S)-2-(5-chloropyridin-2-yl)-2-methylbenzo[d][1,3]dioxol-4-yl)piperidin-1-yl)methyl)-4-(methoxy-d3)-1-(((S)-oxetan-2-yl)methyl)-1H-benzo[d]imidazole-6-carboxylic acid] | > 8.00 | > 85 |
| Cn1c(CN2CCC(c3cccc(OCc4ccc(Cl)cc4F)n3)CC2)nc2c(OC(F)F)cc(-c3noc(=O)[nH]3)cc21 [Compound 236, 3-(2-((4-(6-((4-Chloro-2-fluorobenzyl)oxy)pyridin-2-yl)piperidin-1-yl)methyl)-4-(difluoromethoxy)-1-methyl-1H-benzo[d]imidazol-6-yl)-1,2,4-oxadiazol-5 (4H)-one] | 6.00 to 7.00 | 50 to 85 |
| Cn1c(CN2CCC(c3cccc(OCc4ccc(Cl)cc4F)n3)CC2)nc2c(C#N)cc(C(=O)O)cc21 [Compound 189, 2-((4-(6-((4-chloro-2-fluorobenzyl)oxy)pyridin-2-yl)piperidin-1-yl)methyl)-4-cyano-1-methyl-1H-benzo[d]imidazole-6-carboxylic acid] | 7.00 to 8.00 | > 85 |
| CS(=O)(=O)Nc1cc(C(=O)O)cc2c1nc(CN1CCC(c3cccc(OCc4ccc(C#N)cc4F)n3)CC1)n2C[C@@H]1CCO1 [Compound 129, (S)-2-((4-(6-((4-cyano-2-fluorobenzyl)oxy)pyridin-2-yl)piperidin-1-yl)methyl)-4-(methylsulfonamido)-1-(oxetan-2-ylmethyl)-1H-benzo[d]imidazole-6-carboxylic acid] | 7.00 to 8.00 | > 85 |

Source: US20240368120A1 (Terns Pharmaceuticals, Inc., priority 2023, published 2024)
